Like-named read-outs stand apart in the source and are kept apart here. Where no end group is shown, it is not given here.

What is called viability is a read-out of living cells in per cent, often relative to untreated cells.

The test system of one data set is E. coli, (EC). The data set can be described thus: Bacterial growth by optical density, peptides with or without surfactants. The class given is cell-based, Escherichia coli. How it is done:
Bacteria E. coli, (EC) and S. aureus, (SA) were grown in LB media at 37° C. with continuous shaking for 24 hours. The bacterial concentration was then adjusted such that the absorbance at 600 (A600) was controlled to ca 0.2 unit. The bacteria suspensions with the peptides were incubated in 96-well tissue culture plates. The total medium volume in each well was […]. […] Controls with media only and media with bacteria only were run alongside the peptide bacteria mixed suspensions. Measurements were taken at time t=0, t=20 and t=72 hours using optical density cell plate reader. The optical density (OD) is representative of the relative amount of bacterial growth within the medium.
The antibacterial activities of the designed short peptides in the presence of selected surfactants were investigated to determine if the peptides would sustain their antibacterial performance when surfactants are present. Bacteria E. coli, (EC) and S. aureus, (SA) were grown in LB media at 37° C. with continuous shaking for 24 hours. The bacterial concentrations were then adjusted such that the absorbance at 600 (A600) was controlled to ca 0.2 unit. The bacteria suspensions with the peptides were incubated in 96-well tissue culture plates. The total medium volume in each well was […]. […] Controls used were (i) media only, (ii) media with bacteria only and (iii) bacteria with media containing peptides at a particular concentration. These were run alongside the peptide+bacteria and selected surfactant mixed suspensions. Measurements were taken at time t=0, t=20 and t=72 hours using optical density cell plate reader. Surfactants were added such that the final concentration was 1% within the wells.

The subject of data set [1] is fibroblasts Adult (HDFa) cells. The data set can be described thus: MTT viability of fibroblasts over three days. The format is cell-based, human. How it is done:
(§1) MTT assay: Cell viability and proliferation is widely assessed by the MTT assay as already described previously.
(§2) The fibroblasts cells, Neonatal (HDFn) and Adult (HDFa), were both grown until greater than 80% confluent. […] After 24 hour incubation the culture medium was replaced with fresh medium containing an appropriate amount of the peptide for investigation.
(§3) The viability of the fibroblasts, Adult (HDFa) and Neonatal (HDFn) cells in the presence of surfactants was tested by MTT assay over three days relative to control wells containing cells only.

Data set [2] can be described thus: MTT viability of fibroblasts over three days. As to conditions: human, adult fibroblasts (HDFa cells). The format is cell-based, human. How it is done:
as §1, §2, §3

The next data set in a line: in vitro. The format is cell-based. The conditions noted are these: human, neonatal fibroblasts (HDFn cells). How it is done: as §1
The fibroblasts cells, Neonatal (HDFn) and Adult (HDFa), were both grown until greater than 80% confluent. The cells were then harvested and seeded into micro well plate at cell densities of 5000 cells/well in a volume […] of medium. After 24 hour incubation the culture medium was replaced with fresh medium containing an appropriate amount of the peptide for investigation.

With `CC1(C)S[C@@H]2[C@H](NC(=O)[C@H](N)c3ccccc3)C(=O)N2[C@H]1C(=O)O` [Ampicillin, ampicillin], the “bacterial growth (optical density)” value in the data set on E. coli, (EC) (T = 0 HOUR, NO SURF, 25 μM) stood at 0.20; in the data set on E. coli, (EC) (T = 0 HOUR, NO SURF, 50 μM) it was 0.20; in the data set on E. coli, (EC) (T = 0 HOUR, NO SURF, 100 μM), 0.19; in the data set on E. coli, (EC) (T = 0 HOUR, with 1% C12TAB, 25 μM), 0.27; in the data set on E. coli, (EC) (T = 0 HOUR, with 1% C12TAB, 50 μM), 0.26; in the data set with E. coli, (EC) (T = 0 HOUR, with 1% C12TAB, 100 μM), 0.27. Also, the “bacterial growth (optical density)” value in the data set on E. coli, (EC) (T = 0 HOUR, with 1% F127, 25 μM) was 0.20; in the data set with E. coli, (EC) (T = 0 HOUR, with 1% F127, 50 μM), 0.20; in the data set with E. coli, (EC) (T = 0 HOUR, with 1% F127, 100 μM) it was 0.17; in the data set with E. coli, (EC) (T = 0 HOUR, with 1% Mx, 25 μM), 0.21; with E. coli, (EC) (T = 0 HOUR, with 1% Mx, 50 μM), 0.20; in the data set on E. coli, (EC) (T = 0 HOUR, with 1% Mx, 100 μM), 0.20. In addition, the “bacterial growth (optical density)” value was determined as 0.22 in the data set with E. coli, (EC) (T = 0 HOUR, with 1% SLES, 25 μM); 0.18 in the data set with E. coli, (EC) (T = 0 HOUR, with 1% SLES, 50 μM); 0.15 with E. coli, (EC) (T = 0 HOUR, with 1% SLES, 100 μM); 0.22 with E. coli, (EC) (T = 0 HOUR, with 1% Tt, 25 μM); 0.15 in the data set on E. coli, (EC) (T = 0 HOUR, with 1% Tt, 50 μM); 0.14 with E. coli, (EC) (T = 0 HOUR, with 1% Tt, 100 μM). Moreover, the “bacterial growth (optical density)” value with E. coli, (EC) (T = 20 HOUR, NO SURF, 25 μM) is on record as 0.20; in the data set with E. coli, (EC) (T = 20 HOUR, NO SURF, 50 μM) it was 0.16; with E. coli, (EC) (T = 20 HOUR, NO SURF, 100 μM), 0.16; in the data set on E. coli, (EC) (T = 20 HOUR, with 1% C12TAB, 25 μM) it was 0.27; with E. coli, (EC) (T = 20 HOUR, with 1% C12TAB, 50 μM), 0.26; in the data set on E. coli, (EC) (T = 20 HOUR, with 1% C12TAB, 100 μM), 0.26. Moreover, the “bacterial growth (optical density)” value in the data set with E. coli, (EC) (T = 20 HOUR, with 1% F127, 25 μM) is on record as 0.15; in the data set on E. coli, (EC) (T = 20 HOUR, with 1% F127, 50 μM), 0.13; in the data set with E. coli, (EC) (T = 20 HOUR, with 1% F127, 100 μM), 0.14; in the data set on E. coli, (EC) (T = 20 HOUR, with 1% Mx, 25 μM) it was 0.32; in the data set with E. coli, (EC) (T = 20 HOUR, with 1% Mx, 50 μM), 0.28; with E. coli, (EC) (T = 20 HOUR, with 1% Mx, 100 μM), 0.25. Moreover, the “bacterial growth (optical density)” value with E. coli, (EC) (T = 20 HOUR, with 1% SLES, 25 μM) was 0.08; in the data set on E. coli, (EC) (T = 20 HOUR, with 1% SLES, 50 μM) it was 0.08; in the data set with E. coli, (EC) (T = 20 HOUR, with 1% SLES, 100 μM) it was 0.06; in the data set with E. coli, (EC) (T = 20 HOUR, with 1% Tt, 25 μM), 0.09; in the data set with E. coli, (EC) (T = 20 HOUR, with 1% Tt, 50 μM), 0.07; in the data set on E. coli, (EC) (T = 20 HOUR, with 1% Tt, 100 μM), 0.07.
In the case of `CCCCCCCCCCCCOCCOCCOCCOCCOCCO` [Helix C12E5, Pentaethylene glycol monododecyl ether], the “MTT results (relative MTT reading)” value is reported as 0.01 in data set [1] (human, 1 day, 0.5 %); 0.01 in data set [1] (human, 2 day, 0.5 %); 0.01 in data set [1] (human, 3 day, 0.5 %).
Regarding `CCCCCCCCCCCCOCCOCCOCCOCCOCCOCCO` [Helix C12E6, Hexaethylene glycol monododecyl ether], the “MTT results (relative MTT reading)” value in data set [1] (human, 1 day, 1 %) is given as 0.01; in data set [1] (human, 2 day, 1 %) it was 0.01; in data set [1] (human, 3 day, 1 %) it was 0.01.
On to `CCCCCCCCCCCCOS(=O)(=O)[O-].[Na+]` [SDS, Sodium dodecyl sulphate], for which the “MTT results (relative MTT reading)” value in data set [1] (HDFa, surfactant 1%, Day 1) is recorded as 0.01; in data set [1] (HDFa, surfactant 1%, Day 2), 0.01; in data set [1] (HDFa, surfactant 1%, Day 3), 0.01.
“GIIKKIIKKI-NH2 [Helix G2, G(IIKK)2 I-NH2]”: in data set [2], the viability at 24 h, 5 µM turned out to be 101%; the viability at 24 h, 25 µM amounted to 98%; the viability at 24 h, 50 µM stood at 92%; the viability at 24 h, 100 µM was 91%. In addition, in data set [2], the viability at 48 h, 5 µM was determined as 96%; the viability at 48 h, 25 µM is 90%; the viability at 48 h, 50 µM was 90%; the viability at 48 h, 100 µM amounted to 88%. Moreover, in data set [2], the viability at 72 h, 5 µM turned out to be 95%; the viability at 72 h, 25 µM is 88%; the viability at 72 h, 50 µM was 79%; the viability at 72 h, 100 µM stood at 80%.
“GIKKKIIKKIIKII-NH2 [GIK, GIK(KKII)2 KII-NH2]”: in the data set “in vitro”, the viability at 24 h, 5 µM turned out to be 93%; the viability at 24 h, 25 µM is 98%; the viability at 24 h, 50 µM came to 92%; the viability at 24 h, 100 µM is 85%. Besides, in “in vitro”, the viability at 48 h, 5 µM was determined as 87%; the viability at 48 h, 25 µM came out at 84%; the viability at 48 h, 50 µM was found to be 81%; the viability at 48 h, 100 µM came out at 78%. Further, in the data set “in vitro”, the viability at 72 h, 5 µM was 83%; the viability at 72 h, 25 µM is 78%; the viability at 72 h, 50 µM was 75%; the viability at 72 h, 100 µM came out at 71%. In data set [2], the viability at 24 h, 5 µM came to 97%; the viability at 24 h, 25 µM worked out at 92%; the viability at 24 h, 50 µM amounted to 87%; the viability at 24 h, 100 µM was determined as 85%. Further, in data set [2], the viability at 48 h, 5 µM was 95%; the viability at 48 h, 25 µM is 93%; the viability at 48 h, 50 µM worked out at 78%; the viability at 48 h, 100 µM turned out to be 74%. Further, in data set [2], the viability at 72 h, 5 µM turned out to be 91%; the viability at 72 h, 25 µM was found to be 90%; the viability at 72 h, 50 µM stood at 73%; the viability at 72 h, 100 µM stood at 65%.
Consider GLLKKLLKKLLKKL-NH2 [GL, G(LLKK)3 L-NH2], for which, in the data set “in vitro”, the viability at 24 h, 5 µM is 98%; the viability at 24 h, 25 µM is 88%; the viability at 24 h, 50 µM came to 85%; the viability at 24 h, 100 µM turned out to be 80%. Moreover, in “in vitro”, the viability at 48 h, 5 µM came to 87%; the viability at 48 h, 25 µM came to 84%; the viability at 48 h, 50 µM turned out to be 74%; the viability at 48 h, 100 µM stood at 65%. In “in vitro”, the viability at 72 h, 5 µM was 83%; the viability at 72 h, 25 µM was 81%; the viability at 72 h, 50 µM is 67%; the viability at 72 h, 100 µM worked out at 35%. In data set [2], the viability at 24 h, 5 µM is 91%; the viability at 24 h, 25 µM was found to be 90%; the viability at 24 h, 50 µM came to 87%; the viability at 24 h, 100 µM was found to be 63%. Further, in data set [2], the viability at 48 h, 5 µM came out at 90%; the viability at 48 h, 25 µM came out at 88%; the viability at 48 h, 50 µM was determined as 75%; the viability at 48 h, 100 µM worked out at 57%. Also, in data set [2], the viability at 72 h, 5 µM is 87%; the viability at 72 h, 25 µM is 74%; the viability at 72 h, 50 µM was 46%; the viability at 72 h, 100 µM was found to be 11%.
On to cocamide ethanolamines [CMEA], for which, in data set [1], the “MTT results (relative MTT reading)” value turned out to be 0.00.

The record behind these values is patent US9745348B2 (The University of Manchester, priority 2011, dated 2017).
